Results published in patent US20230085307A1, “PYRIDAZINONE COMPOUND AND HERBICIDE” (NISSAN CHEMICAL CORPORATION, priority 2019, published 2023).

test system: velvetleaf; assay: Test Example 5: herbicidal effect by foliage application, plastic box (Table 20, symbol M); format: in vivo, velvetleaf (Abutilon theophrasti); conditions: foliage application, 320 g/ha, three weeks after application
Method in brief: (§1)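 Plants sown in sterilized diluvial soil and grown 14 days in a greenhouse at 25° C to 30° C, then sprayed on the foliage with the compound's emulsion diluted in water to a predetermined herbicide amount. Injury to weeds and crops scored three weeks after application on a visual rating scale.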

| SMILES | herbicidal effect grade, M: velvetleaf |
| --- | --- |
| CCCC(=O)Oc1c(C)nn(C)c(=O)c1-c1c(-c2ccc(OC(C)C)cc2)sc2ccccc12 [1-021] | 3 (Herbicidal rate of 40% or more and less than 70%) |
| CCCCOc1ccc(-c2sc3ccccc3c2-c2c(O)c(C)nn(C)c2=O)cc1 [1-024] | 5 (Herbicidal rate of 90% or more (almost completely withered)) |

test system: chickweed; assay: Test Example 5: herbicidal effect by foliage application, plastic box (Table 20, symbol P); format: in vivo, common chickweed (Stellaria media); conditions: foliage application, 320 g/ha, three weeks after application
Method in brief: as §1

| SMILES | herbicidal effect grade, P: chickweed |
| --- | --- |
| CCCC(=O)Oc1c(C)nn(C)c(=O)c1-c1c(-c2ccc(OC(C)C)cc2)sc2ccccc12 [1-021] | 5 (Herbicidal rate of 90% or more (almost completely withered)) |
| CCCCOc1ccc(-c2sc3ccccc3c2-c2c(O)c(C)nn(C)c2=O)cc1 [1-024] | 5 (Herbicidal rate of 90% or more (almost completely withered)) |

test system: barnyard grass; assay: Test Example 4: herbicidal effect by soil treatment (Table 19, symbol H); format: in vivo, barnyard grass (Echinochloa crus-galli); conditions: amount of applied herbicide 320 g/ha
Method in brief: (§2)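 Three weeks of greenhouse growth at 25° C. to 30° C. followed a uniform surface spray of water-diluted emulsion at a predetermined herbicide amount. Seeds had been sown beforehand under about 1.5 cm of sterilized diluvial soil. Grading followed criteria set out in an earlier test.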

| SMILES | herbicidal effect rating, H: barnyard grass |
| --- | --- |
| CCCC(=O)Oc1c(C)nn(C)c(=O)c1-c1c(-c2ccc(OC(C)C)cc2)sc2ccccc12 [1-021] | 0 (Herbicidal rate of 5% or less (almost no effect)) |
| CCCCOc1ccc(-c2sc3ccccc3c2-c2c(O)c(C)nn(C)c2=O)cc1 [1-024] | 3 (Herbicidal rate of 40% or more and less than 70%) |

test system: windgrass; assay: Test Example 5: herbicidal effect by foliage application, plastic box (Table 20, symbol L); format: in vivo, windgrass (Apera spica-venti); conditions: foliage application, 320 g/ha, three weeks after application
Method in brief: as §1

| SMILES | herbicidal effect grade, L: windgrass |
| --- | --- |
| CCCC(=O)Oc1c(C)nn(C)c(=O)c1-c1c(-c2ccc(OC(C)C)cc2)sc2ccccc12 [1-021] | 0 (Herbicidal rate of 5% or less (almost no effect)) |
| CCCCOc1ccc(-c2sc3ccccc3c2-c2c(O)c(C)nn(C)c2=O)cc1 [1-024] | 4 (Herbicidal rate of 70% or more and less than 90%) |

test system: southern crabgrass; assay: Test Example 5: herbicidal effect by foliage application, plastic box (Table 20, symbol F); format: in vivo, southern crabgrass (Digitaria ciliaris); conditions: foliage application, 320 g/ha, three weeks after application
Method in brief: as §1

| SMILES | herbicidal effect grade, F: southern crabgrass |
| --- | --- |
| CCCC(=O)Oc1c(C)nn(C)c(=O)c1-c1c(-c2ccc(OC(C)C)cc2)sc2ccccc12 [1-021] | 3 (Herbicidal rate of 40% or more and less than 70%) |
| CCCCOc1ccc(-c2sc3ccccc3c2-c2c(O)c(C)nn(C)c2=O)cc1 [1-024] | 5 (Herbicidal rate of 90% or more (almost completely withered)) |

test system: wild oat; assay: Test Example 4: herbicidal effect by soil treatment (Table 19, symbol I); format: in vivo, wild oat (Avena fatua); conditions: amount of applied herbicide 320 g/ha
Method in brief: as §2

| SMILES | herbicidal effect rating, I: wild oat |
| --- | --- |
| CCCC(=O)Oc1c(C)nn(C)c(=O)c1-c1c(-c2ccc(OC(C)C)cc2)sc2ccccc12 [1-021] | 0 (Herbicidal rate of 5% or less (almost no effect)) |
| CCCCOc1ccc(-c2sc3ccccc3c2-c2c(O)c(C)nn(C)c2=O)cc1 [1-024] | 0 (Herbicidal rate of 5% or less (almost no effect)) |

test system: velvetleaf; assay: Test Example 4: herbicidal effect by soil treatment (Table 19, symbol M); format: in vivo, velvetleaf (Abutilon theophrasti); conditions: amount of applied herbicide 320 g/ha
Method in brief: as §2

| SMILES | herbicidal effect rating, M: velvetleaf |
| --- | --- |
| CCCC(=O)Oc1c(C)nn(C)c(=O)c1-c1c(-c2ccc(OC(C)C)cc2)sc2ccccc12 [1-021] | 3 (Herbicidal rate of 40% or more and less than 70%) |
| CCCCOc1ccc(-c2sc3ccccc3c2-c2c(O)c(C)nn(C)c2=O)cc1 [1-024] | 4 (Herbicidal rate of 70% or more and less than 90%) |

test system: persian speedwell; assay: Test Example 4: herbicidal effect by soil treatment (Table 19, symbol R); format: in vivo, Persian speedwell (Veronica persica); conditions: amount of applied herbicide 320 g/ha
Method in brief: as §2

| SMILES | herbicidal effect rating, R: persian speedwell |
| --- | --- |
| CCCC(=O)Oc1c(C)nn(C)c(=O)c1-c1c(-c2ccc(OC(C)C)cc2)sc2ccccc12 [1-021] | 5 (Herbicidal rate of 90% or more (almost completely withered)) |
| CCCCOc1ccc(-c2sc3ccccc3c2-c2c(O)c(C)nn(C)c2=O)cc1 [1-024] | 4 (Herbicidal rate of 70% or more and less than 90%) |

test system: persian speedwell; assay: Test Example 5: herbicidal effect by foliage application, plastic box (Table 20, symbol R); format: in vivo, Persian speedwell (Veronica persica); conditions: foliage application, 320 g/ha, three weeks after application
Method in brief: as §1

| SMILES | herbicidal effect grade, R: persian speedwell |
| --- | --- |
| CCCC(=O)Oc1c(C)nn(C)c(=O)c1-c1c(-c2ccc(OC(C)C)cc2)sc2ccccc12 [1-021] | 5 (Herbicidal rate of 90% or more (almost completely withered)) |
| CCCCOc1ccc(-c2sc3ccccc3c2-c2c(O)c(C)nn(C)c2=O)cc1 [1-024] | 5 (Herbicidal rate of 90% or more (almost completely withered)) |

test system: lambsquarters; assay: Test Example 4: herbicidal effect by soil treatment (Table 19, symbol O); format: in vivo, lambsquarters (Chenopodium album); conditions: amount of applied herbicide 320 g/ha
Method in brief: as §2

| SMILES | herbicidal effect rating, O: lambsquarters |
| --- | --- |
| CCCC(=O)Oc1c(C)nn(C)c(=O)c1-c1c(-c2ccc(OC(C)C)cc2)sc2ccccc12 [1-021] | 0 (Herbicidal rate of 5% or less (almost no effect)) |
| CCCCOc1ccc(-c2sc3ccccc3c2-c2c(O)c(C)nn(C)c2=O)cc1 [1-024] | 5 (Herbicidal rate of 90% or more (almost completely withered)) |

test system: blackgrass; assay: Test Example 4: herbicidal effect by soil treatment (Table 19, symbol J); format: in vivo, blackgrass (Alopecurus myosuroides); conditions: amount of applied herbicide 320 g/ha
Method in brief: as §2

| SMILES | herbicidal effect rating, J: blackgrass |
| --- | --- |
| CCCC(=O)Oc1c(C)nn(C)c(=O)c1-c1c(-c2ccc(OC(C)C)cc2)sc2ccccc12 [1-021] | 0 (Herbicidal rate of 5% or less (almost no effect)) |
| CCCCOc1ccc(-c2sc3ccccc3c2-c2c(O)c(C)nn(C)c2=O)cc1 [1-024] | 0 (Herbicidal rate of 5% or less (almost no effect)) |

test system: chickweed; assay: Test Example 4: herbicidal effect by soil treatment (Table 19, symbol P); format: in vivo, common chickweed (Stellaria media); conditions: amount of applied herbicide 320 g/ha
Method in brief: as §2

| SMILES | herbicidal effect rating, P: chickweed |
| --- | --- |
| CCCC(=O)Oc1c(C)nn(C)c(=O)c1-c1c(-c2ccc(OC(C)C)cc2)sc2ccccc12 [1-021] | 5 (Herbicidal rate of 90% or more (almost completely withered)) |
| CCCCOc1ccc(-c2sc3ccccc3c2-c2c(O)c(C)nn(C)c2=O)cc1 [1-024] | 4 (Herbicidal rate of 70% or more and less than 90%) |

test system: southern crabgrass; assay: Test Example 4: herbicidal effect by soil treatment (Table 19, symbol F); format: in vivo, southern crabgrass (Digitaria ciliaris); conditions: amount of applied herbicide 320 g/ha
Method in brief: as §2

| SMILES | herbicidal effect rating, F: southern crabgrass |
| --- | --- |
| CCCC(=O)Oc1c(C)nn(C)c(=O)c1-c1c(-c2ccc(OC(C)C)cc2)sc2ccccc12 [1-021] | 0 (Herbicidal rate of 5% or less (almost no effect)) |
| CCCCOc1ccc(-c2sc3ccccc3c2-c2c(O)c(C)nn(C)c2=O)cc1 [1-024] | 0 (Herbicidal rate of 5% or less (almost no effect)) |

test system: lambsquarters; assay: Test Example 5: herbicidal effect by foliage application, plastic box (Table 20, symbol O); format: in vivo, lambsquarters (Chenopodium album); conditions: foliage application, 320 g/ha, three weeks after application
Method in brief: as §1

| SMILES | herbicidal effect grade, O: lambsquarters |
| --- | --- |
| CCCC(=O)Oc1c(C)nn(C)c(=O)c1-c1c(-c2ccc(OC(C)C)cc2)sc2ccccc12 [1-021] | 1 (Herbicidal rate of 5% or more and less than 20%) |
| CCCCOc1ccc(-c2sc3ccccc3c2-c2c(O)c(C)nn(C)c2=O)cc1 [1-024] | 5 (Herbicidal rate of 90% or more (almost completely withered)) |

test system: oval-leafed pondweed; assay: Test Example 1: herbicidal activity, application before weed generation under submerged conditions (Table 16, symbol C); format: in vivo, oval-leafed pondweed (Monochoria vaginalis); conditions: 320 g/ha applied herbicide
Method in brief: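 Alluvial soil was flooded to 4 cm depth, weed seeds were sown mixed and 2.5-leaf rice seedlings were transplanted. On sowing day, the compound's emulsion, diluted in water to a set dose, was applied to the water surface. Plants grew at 25–30 °C and were scored 0–5 after three weeks.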

| SMILES | Herbicidal effect on C: oval-leafed pondweed (grade 0-5) |
| --- | --- |
| CCCC(=O)Oc1c(C)nn(C)c(=O)c1-c1c(-c2ccc(OC(C)C)cc2)sc2ccccc12 [1-021] | 4 (Herbicidal rate of 70% or more and less than 90%) |
| CCCCOc1ccc(-c2sc3ccccc3c2-c2c(O)c(C)nn(C)c2=O)cc1 [1-024] | 5 (Herbicidal rate of 90% or more (almost completely withered)) |

test system: green foxtail; assay: Test Example 4: herbicidal effect by soil treatment (Table 19, symbol G); format: in vivo, green foxtail (Setaria viridis); conditions: amount of applied herbicide 320 g/ha
Method in brief: as §2

| SMILES | herbicidal effect rating, G: green foxtail |
| --- | --- |
| CCCC(=O)Oc1c(C)nn(C)c(=O)c1-c1c(-c2ccc(OC(C)C)cc2)sc2ccccc12 [1-021] | 1 (Herbicidal rate of 5% or more and less than 20%) |
| CCCCOc1ccc(-c2sc3ccccc3c2-c2c(O)c(C)nn(C)c2=O)cc1 [1-024] | 0 (Herbicidal rate of 5% or less (almost no effect)) |

test system: Japanese bulrush; assay: Test Example 2: herbicidal activity, application during weed generation under submerged conditions (Table 17, symbol B); format: in vivo, Japanese bulrush (Schoenoplectus juncoides); conditions: AAH 320 g/ha; application during weed generation, submerged conditions
Method in brief: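 In this pot test, flooded alluvial soil (water depth 4 cm) holds all three species sown as a mixture. Once seedlings have one to two leaves, the compound's emulsion, thinned with water to the intended dose, is poured on the water; grading follows after three weeks on the earlier criteria.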

| SMILES | herbicidal effect rating, B: Japanese bulrush |
| --- | --- |
| CCCC(=O)Oc1c(C)nn(C)c(=O)c1-c1c(-c2ccc(OC(C)C)cc2)sc2ccccc12 [1-021] | 3 (Herbicidal rate of 40% or more and less than 70%) |
| CCCCOc1ccc(-c2sc3ccccc3c2-c2c(O)c(C)nn(C)c2=O)cc1 [1-024] | 4 (Herbicidal rate of 70% or more and less than 90%) |
